Values quoted from earlier work in patent US11318157B2, “6-6 bicyclic aromatic ring substituted nucleoside analogues for use as PRMT5 inhibitors” (Janssen Pharmaceutica NV, priority 2015, dated 2022).

What was measured:
PRMT5 = PRMT5 (Homo sapiens, UniProt O14744); conditions: literature statement; cited from earlier work
MCL xenograft models = conditions: multiple MCL xenograft models; cited from earlier work

PRMT5, sequence (O14744 whole entry, species assumed): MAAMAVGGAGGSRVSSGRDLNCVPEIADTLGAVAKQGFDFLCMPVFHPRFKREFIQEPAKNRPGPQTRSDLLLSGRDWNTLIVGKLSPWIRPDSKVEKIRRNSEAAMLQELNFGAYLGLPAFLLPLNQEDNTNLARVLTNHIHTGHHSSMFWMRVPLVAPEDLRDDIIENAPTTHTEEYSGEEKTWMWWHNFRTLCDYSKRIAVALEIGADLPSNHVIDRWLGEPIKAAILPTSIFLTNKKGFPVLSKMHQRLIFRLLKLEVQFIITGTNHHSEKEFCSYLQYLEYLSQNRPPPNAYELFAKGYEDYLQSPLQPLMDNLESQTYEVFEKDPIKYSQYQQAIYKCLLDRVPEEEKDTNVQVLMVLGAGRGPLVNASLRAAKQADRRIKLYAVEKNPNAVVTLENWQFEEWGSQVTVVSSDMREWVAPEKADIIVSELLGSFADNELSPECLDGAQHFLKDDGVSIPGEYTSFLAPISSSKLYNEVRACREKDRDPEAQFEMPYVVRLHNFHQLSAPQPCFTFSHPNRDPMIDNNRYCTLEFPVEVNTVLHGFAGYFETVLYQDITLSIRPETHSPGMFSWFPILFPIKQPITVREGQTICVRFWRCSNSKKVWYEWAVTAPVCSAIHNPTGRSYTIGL
PRMT5, sequence (Q9BQA1 whole entry partner, species assumed): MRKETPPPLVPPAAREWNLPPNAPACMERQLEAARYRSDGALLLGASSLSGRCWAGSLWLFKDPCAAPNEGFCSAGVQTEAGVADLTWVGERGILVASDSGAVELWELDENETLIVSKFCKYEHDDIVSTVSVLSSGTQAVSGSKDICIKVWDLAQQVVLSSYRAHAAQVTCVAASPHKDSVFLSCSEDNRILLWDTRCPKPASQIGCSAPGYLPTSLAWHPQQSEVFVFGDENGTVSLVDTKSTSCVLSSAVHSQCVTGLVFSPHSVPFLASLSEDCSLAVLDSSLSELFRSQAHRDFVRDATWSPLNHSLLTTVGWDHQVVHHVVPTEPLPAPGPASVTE

For `O=C(NC[C@H](O)CN1CCc2ccccc2C1)c1cc(NC2COC2)ncn1` [EPZ015666], the “potency as PRMT5 inhibitor” value (PRMT5) is given as “sub-nanomolar” and the anti-tumour activity (MCL xenograft models) is given as “anti-tumour activity”.
